The experiment can be described thus: Western blot analysis for "B" compounds. Type of experiment: cell-based. The settings on record: read-out: Traditional Western Degradation Potency (DC50). A digest of the protocol:
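Compound-treated cells lysed in RIPA buffer with protease inhibitors; equal protein (BCA) run on 10% SDS-PAGE, transferred to PVDF and probed with target antibodies. Band intensities quantified by densitometry and normalized to GAPDH.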
Take `O=C1CCC(N2Cc3cc4c(cc3C2=O)CN(C(=O)C2CCC(N3CC(Oc5ccc([C@@H]6c7ccc(O)cc7CC[C@@H]6c6ccccc6)cc5)C3)CC2)C4)C(=O)N1` (stereo partly drawn) [Compound B106, 3-(6-((1R,4r)-4-(3-(4-((1R,2S)-6-hydroxy-2-phenyl-1,2,3,4-tetrahydronaphthalen-1-yl)phenoxy)azetidin-1-yl)cyclohexane-1-carbonyl)-1-oxo-3,5,6,7-tetrahydropyrrolo[3,4-f]isoindol-2(1H)-yl)piperidine-2,6-dione]: the DC50 is less than 10 nM. As for `O=C1CCC(N2C(=O)c3cc4c(cc3C2=O)CN(CC2CCC3(CC2)CCN(C(=O)c2ccc([C@@H]5c6ccc(O)cc6CC[C@@H]5c5ccccc5)cc2)CC3)C4)C(=O)N1` (stereo partly drawn) [Compound B287, 2-(2,6-dioxopiperidin-3-yl)-6-((3-(4-((1R,2S)-6-hydroxy-2-phenyl-1,2,3,4-tetrahydronaphthalen-1-yl)benzoyl)-3-azaspiro[5.5]undecan-9-yl)methyl)-6,7-dihydropyrrolo[3,4-f]isoindole-1,3(2H,5H)-dione], the figure is more than 100 nM; as for “3-(6-((1S,4s)-4-(3-((4-((1R,2S)-6-hydroxy-2-phenyl-1,2,3,4- tetrahydronaphthalcn-1-yl)phenyl)amino)azctidin-1- yl)cyclohexane-1-carbonyl)-1-oxo-3,5,6,7- tetrahydropyrrolo[3,4-f]isoindol-2(1H)-yl)piperidine-2,6-dione [Compound B110]”, more than 100 nM; as for `O=C1CCC(N2C(=O)c3cc4c(cc3C2=O)CN(C[C@H]2CC[C@@H](N3CC(Nc5ccc([C@@H]6c7ccc(O)cc7CC[C@@H]6c6ccccc6)cc5)C3)CC2)C4)C(=O)N1` (stereo partly drawn) [Compound B119, 2-(2,6-dioxopiperidin-3-yl)-6-(((1S,4s)-4-(3-((4-((1R,2S)-6-hydroxy-2-phenyl-1,2,3,4-tetrahydronaphthalen-1-yl)phenyl)amino)azetidin-1-yl)cyclohexyl)methyl)-6,7-dihydropyrrolo[3,4-f]isoindole-1,3(2H,5H)-dione], more than 100 nM.

On to `O=C1CCC(N2C(=O)c3cc4c(cc3C2=O)CN(CC(=O)N2CCC3(CC2)CCN(c2ccc([C@@H]5c6ccc(O)cc6CC[C@@H]5c5ccccc5)cc2)CC3)CC4)C(=O)N1` (stereo partly drawn) [Compound B195, 2-(2,6-dioxopiperidin-3-yl)-6-(2-(9-(4-((1R,2S)-6-hydroxy-2-phenyl-1,2,3,4-tetrahydronaphthalen-1-yl)phenyl)-3,9-diazaspiro[5.5]undecan-3-yl)-2-oxoethyl)-5,6,7,8-tetrahydro-1H-pyrrolo[3,4-g]isoquinoline-1,3(2H)-dione], for which the DC50 was in the range of 10 to 100 nM.

For `O=C1CCC(N2C(=O)c3cc4c(cc3C2=O)CN(C(=O)c2ccc(CC(=O)N3CCCC(Oc5ccc([C@@H]6c7ccc(O)cc7CC[C@@H]6c6ccccc6)cc5)C3)cc2)C4)C(=O)N1` (stereo partly drawn) [Compound B16, 2-(2,6-dioxopiperidin-3-yl)-6-(4-(2-(3-(4-((1R,2S)-6-hydroxy-2-phenyl-1,2,3,4-tetrahydronaphthalen-1-yl)phenoxy)piperidin-1-yl)-2-oxoethyl)benzoyl)-6,7-dihydropyrrolo[3,4-f]isoindole-1,3(2H,5H)-dione], the 50% degradation concentration (DC50) is 10 to 100 nM. In the case of `O=C1CCC(N2Cc3cc4c(cc3C2=O)CN(C(=O)C2CCC(CN3CC(Oc5ccc([C@@H]6c7ccc(O)cc7CC[C@@H]6c6ccccc6)cc5)C3)CC2)C4)C(=O)N1` (stereo partly drawn) [Compound B286, 3-(6-((1R,4r)-4-((3-(4-((1R,2S)-6-hydroxy-2-phenyl-1,2,3,4-tetrahydronaphthalen-1-yl)phenoxy)azetidin-1-yl)methyl)cyclohexane-1-carbonyl)-1-oxo-3,5,6,7-tetrahydropyrrolo[3,4-f]isoindol-2(1H)-yl)piperidine-2,6-dione], the half-maximal degradation concentration (DC50) was more than 100 nM.

The term DC50 denotes the midpoint of the concentration-degradation curve.
